From PubChem BioAssay (NCI) come the findings set out here.

Test systems include IGROV1 ovarian; HCT-116 colon; CCRF-CEM leukemia; BT-549 breast; OVCAR-8 ovarian; COLO 205 colon; NCI-H23 lung; HT29 colon; NCI-H226 lung; HL-60(TB) leukemia.
What all share (assay): NCI-60 cell line screen, 48 h

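Test compounds were applied to cells in 96-well plates for 48 hours at 5 doses. GI50 marks 50% less growth. The concentration for full growth arrest is given as TGI.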

As to `COc1c(C)c(C/C=C(\C)CC/C=C(\C)CCC=C(C)C)c(OC)c(OC)c1OC`, the TGI with IGROV1 ovarian, in the assay with HCT-116 colon, in the assay on CCRF-CEM leukemia, in the assay on BT-549 breast, in the assay with OVCAR-8 ovarian and with COLO 205 colon was more than 100 µM throughout. Also, the TGI with NCI-H23 lung and in the assay with HT29 colon was more than 100 µM each time.
As for `CO[C@H]1C[C@H](O[C@H]2CC[C@]3(C=O)[C@H]4CC[C@]5(C)[C@@H](C6=CC(=O)OC6)CC[C@]5(O)[C@@H]4CC[C@]3(O)C2)O[C@H](C)[C@H]1O`, the TGI in the assay with IGROV1 ovarian was 7.86 µM; in the assay with HCT-116 colon, 0.737 µM; with CCRF-CEM leukemia it was more than 100 µM; with NCI-H226 lung, 1.28 µM; in the assay with BT-549 breast it was 0.818 µM; with OVCAR-8 ovarian, 1.03 µM. The TGI with COLO 205 colon was 1.83 µM; in the assay on NCI-H23 lung it was 0.787 µM; in the assay on HL-60(TB) leukemia, 2.51 µM.
`O=C(Nc1cccc(-n2cc(-c3ccncc3)c(-c3ccc(O)c(Cl)c3)n2)c1)c1cccc(C(F)(F)F)c1`: the GI50 was 9.88 µM in the assay with IGROV1 ovarian; 3.24 µM in the assay on HCT-116 colon; 1.88 µM in the assay on CCRF-CEM leukemia; 7.17 µM with NCI-H226 lung; 3.34 µM in the assay on BT-549 breast; 3.89 µM in the assay on OVCAR-8 ovarian. The GI50 in the assay on COLO 205 colon is 13 µM; in the assay on NCI-H23 lung, 4.38 µM; with HT29 colon, 5.18 µM; with HL-60(TB) leukemia, 2.68 µM. Moreover, the TGI with IGROV1 ovarian, in the assay on HCT-116 colon, with CCRF-CEM leukemia, in the assay on NCI-H226 lung, in the assay on BT-549 breast and in the assay with OVCAR-8 ovarian was more than 100 µM in each case. Moreover, the TGI in the assay on COLO 205 colon was 72.9 µM; in the assay on NCI-H23 lung, more than 100 µM; with HT29 colon it was more than 100 µM; in the assay with HL-60(TB) leukemia, 6.76 µM.
For the molecule `O=[N+]([O-])c1cccnc1-n1cnc2ccccc21`, the TGI in the assay with IGROV1 ovarian, in the assay on HCT-116 colon, in the assay with CCRF-CEM leukemia, with NCI-H226 lung, with BT-549 breast and with OVCAR-8 ovarian was more than 100 µM each time. Besides, the TGI in the assay on COLO 205 colon, with HT29 colon and with HL-60(TB) leukemia was more than 100 µM each time.
Consider `Nc1ncnc2c1ncn2Cc1cccc(CCl)c1`, for which the TGI with IGROV1 ovarian was determined as 31.8 µM; in the assay on HCT-116 colon, 24.6 µM; in the assay on NCI-H226 lung, 33.4 µM; with BT-549 breast, 25.8 µM; in the assay with OVCAR-8 ovarian, 42.9 µM; in the assay on NCI-H23 lung it was 36.5 µM. The TGI with HT29 colon and with HL-60(TB) leukemia was more than 100 µM throughout.
As to `O=C1c2ccccc2-c2[nH]c3cn[nH]c(=O)c3c21`, the TGI with IGROV1 ovarian, in the assay on HCT-116 colon, in the assay with CCRF-CEM leukemia, with NCI-H226 lung, with BT-549 breast and in the assay with OVCAR-8 ovarian was more than 100 µM throughout. The TGI with COLO 205 colon, in the assay with NCI-H23 lung, in the assay with HT29 colon and in the assay on HL-60(TB) leukemia was more than 100 µM in each case.
Consider `CCN(CC)c1ccc2cc(-c3nc4ccccc4c(=O)[nH]3)c(=N)oc2c1`, for which the TGI with IGROV1 ovarian, in the assay on HCT-116 colon, in the assay with CCRF-CEM leukemia, in the assay with NCI-H226 lung, in the assay on BT-549 breast and with OVCAR-8 ovarian was more than 100 µM in each case. For the same molecule, the TGI in the assay with COLO 205 colon, in the assay with HT29 colon and with HL-60(TB) leukemia was more than 100 µM in each case.
With `Cc1cc2cc3c(cc2c(-c2ccc(N)cc2)n1)OCO3`, the TGI in the assay with IGROV1 ovarian is 59.5 µM; with HCT-116 colon, more than 100 µM; in the assay with CCRF-CEM leukemia it was more than 100 µM; with BT-549 breast, more than 100 µM; with OVCAR-8 ovarian it was more than 100 µM; with COLO 205 colon, 88.5 µM. The results for the TGI in the assay with NCI-H23 lung, in the assay on HT29 colon and in the assay on HL-60(TB) leukemia were more than 100 µM, 62.2 µM and 47.3 µM, respectively.
For `CSc1ccc(/C=C2\N=C(c3ccccc3)N(/N=C/c3cc4cc(C)ccc4nc3Cl)C2=O)cc1`, the TGI in the assay on IGROV1 ovarian is 35 µM; in the assay on HCT-116 colon, 33.2 µM; in the assay on CCRF-CEM leukemia, more than 100 µM; with BT-549 breast, 56.5 µM; in the assay on OVCAR-8 ovarian it was 42.4 µM; in the assay on COLO 205 colon, 39.4 µM. Besides, the TGI with HT29 colon turned out to be 62.1 µM; in the assay with HL-60(TB) leukemia it was 47.5 µM.
For the molecule `O=C(c1ccco1)N(C(=S)OC12CC3CC(CC(C3)C1)C2)c1ccccc1`, the TGI is 48.7 µM in the assay on HCT-116 colon; 59.5 µM in the assay with CCRF-CEM leukemia; more than 100 µM with NCI-H226 lung; more than 100 µM with BT-549 breast; more than 100 µM with OVCAR-8 ovarian; 32.4 µM in the assay on COLO 205 colon. Further, the TGI in the assay with NCI-H23 lung was 87.3 µM; in the assay with HT29 colon, more than 100 µM; with HL-60(TB) leukemia it was 63.6 µM.
With `COc1ccc2nc3n(c2c1)CCc1cc(OC)c(OC)cc1-3`, the TGI in the assay on HCT-116 colon is more than 100 µM; with CCRF-CEM leukemia, more than 100 µM; with NCI-H226 lung, more than 100 µM; in the assay on BT-549 breast, 99.2 µM; in the assay on OVCAR-8 ovarian, more than 100 µM; in the assay with COLO 205 colon, 90.8 µM. In addition, the results for the TGI with NCI-H23 lung, with HT29 colon and in the assay on HL-60(TB) leukemia were more than 100 µM, 95.8 µM and more than 100 µM, respectively.
As for `CC(C)OC1OC(CO)C(O)CC1n1cc(F)c(=O)[nH]c1=O` (stereo not drawn), the TGI in the assay on IGROV1 ovarian, with HCT-116 colon, with NCI-H226 lung, in the assay on BT-549 breast, in the assay on OVCAR-8 ovarian and in the assay on COLO 205 colon was more than 100 µM in each case. Moreover, the TGI with NCI-H23 lung and with HT29 colon was more than 100 µM each time.
As to `COC(=O)CCCC(=O)NC1=C(NCc2ccccc2)C(=O)c2ccccc2C1=O`, the TGI in the assay with IGROV1 ovarian was more than 100 µM; with HCT-116 colon, more than 100 µM; with CCRF-CEM leukemia it was more than 100 µM; with BT-549 breast, 93.8 µM; in the assay with OVCAR-8 ovarian it was more than 100 µM; in the assay with COLO 205 colon, more than 100 µM. For the same molecule, the TGI in the assay with NCI-H23 lung is more than 100 µM; in the assay with HL-60(TB) leukemia it was 77.3 µM.
`CN(C)C(=S)Oc1ccc2ccc(=O)oc2c1`: the TGI in the assay with IGROV1 ovarian, with HCT-116 colon, in the assay on NCI-H226 lung, in the assay with BT-549 breast, with OVCAR-8 ovarian and in the assay on COLO 205 colon was more than 100 µM in each case. The TGI with NCI-H23 lung, in the assay on HT29 colon and in the assay with HL-60(TB) leukemia was more than 100 µM throughout.
